Usually pIC50 stands for the IC50 on a negative log10 scale, so that one unit is a factor of ten. Lower therefore signals a large IC50.

pIC50: −log10 of the molar value. Some results are limits rather than exact numbers.

This note sets out measurements from patent US11358969B2, “Indole AHR inhibitors and uses thereof” (Ikena Oncology, Inc., priority 2017, dated 2022).

The target of the assay is T1, AHR (UniProt P35869).
T1 construct: IC50
T1 sequence (P35869 1-848): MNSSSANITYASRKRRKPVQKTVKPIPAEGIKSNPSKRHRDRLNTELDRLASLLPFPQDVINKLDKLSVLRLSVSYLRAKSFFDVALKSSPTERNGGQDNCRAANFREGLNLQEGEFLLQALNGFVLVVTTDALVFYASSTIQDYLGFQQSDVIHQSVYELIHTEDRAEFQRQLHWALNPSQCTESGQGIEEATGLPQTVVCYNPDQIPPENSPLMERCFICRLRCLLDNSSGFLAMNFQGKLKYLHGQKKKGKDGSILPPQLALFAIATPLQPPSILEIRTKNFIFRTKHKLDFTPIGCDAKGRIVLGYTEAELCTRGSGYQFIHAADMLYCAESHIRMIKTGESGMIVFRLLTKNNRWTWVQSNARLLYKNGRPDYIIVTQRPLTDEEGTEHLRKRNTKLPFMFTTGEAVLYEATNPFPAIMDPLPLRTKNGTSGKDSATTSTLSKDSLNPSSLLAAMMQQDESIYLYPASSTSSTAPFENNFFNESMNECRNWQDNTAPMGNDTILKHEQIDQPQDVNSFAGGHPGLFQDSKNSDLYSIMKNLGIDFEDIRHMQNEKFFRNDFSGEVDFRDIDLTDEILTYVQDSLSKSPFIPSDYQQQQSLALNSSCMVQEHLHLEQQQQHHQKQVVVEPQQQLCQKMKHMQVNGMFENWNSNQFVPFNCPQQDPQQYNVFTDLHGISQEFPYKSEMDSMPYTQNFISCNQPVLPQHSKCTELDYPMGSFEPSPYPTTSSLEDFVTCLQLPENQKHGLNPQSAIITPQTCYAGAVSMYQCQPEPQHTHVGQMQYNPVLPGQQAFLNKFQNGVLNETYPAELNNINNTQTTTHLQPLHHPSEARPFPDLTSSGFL
Kind of assay: DRE-Luciferase Reporter Assay (Alternate Method) (Example 1B). The conditions noted are these: cell line and AHR activating ligand not specified. The class given is cell-based, murine or human. How it is done:
AHR binds to Dioxin Responsive Elements (DRE) upstream of genes that it activates. One measure of AHR activity is activation of a reporter gene, such as luciferase, downstream of one or multiple DRE elements. Luciferase activity will reflect activation and inhibition of AHR in the cells expressing his reporter.
Murine Hepa1-6 or Hepa-1c1c7 or other murine cell line with a DRE-luciferase reporter either stably or transiently transfected were plated in media in plates (96-well, 384-well or other plates) and incubated overnight at 37° C. in a CO2 incubator or compound and agonist were added at the time of plating. Likewise, human HepG2 or other human cell line with a DRE-luciferase reporter either stably or transiently transfected were plated in media in plates (96-well, 384-well or other plates) and incubated overnight at 37° C. in a CO2 incubator or compound and agonist were added at the time of plating.
At the time that cells are plated or following incubation overnight, an AHR activating ligand, such as TCDD, kynurenine, ITE (2-(1H-indole-3-ylcarbonyl)-4-thiazolecarboxylic methyl ester), VAF347, BNF (beta-naphthoflavone), FICZ (6-formylindolo(3,2-b) carbazole or other AHR ligands, was added with or without AHR antagonist.
Cells were incubated for 4, 15 or 24 hours or another time point and then lysed for determination of luciferase activity as a read-out of the AHR activation or inhibition. Luciferase was measured with a commercial kit such as the Promega Luciferase kit or any kit or reagents that provide the luciferin substrate for measuring luciferase activity. The level of luciferase with only activating ligand added was the maximum signal while the luciferase with no ligand was the minimum signal. IC50 values were determined as the concentration which inhibits half of the luciferase activity.
Compound `CC(C)N(C)c1cc(NCCc2c[nH]c3ccccc23)nc(-c2cncc(F)c2)n1` [I-93, 2-(5-Fluoro-3-pyridyl)-N6-[2-(1H-indol-3-yl)ethyl]-N4-isopropyl-N4-methyl-pyrimidine-4,6-diamine] showed a pIC50 of over 6.30. For `CC(C)c1cnn2c(N[C@@H]3CCc4ccc(O)cc4C3)cc(-c3cncc(F)c3)nc12` [I-94a, (3R)-3-[[5-(5-fluoro-3-pyridyl)-3-isopropyl-pyrazolo[1,5-a]pyrimidin-7-yl]amino]tetralin-6-ol] the value was under 5.82; for `CC(C)c1cnn2c(C(=O)NCc3cccc(O)c3)cc(-c3cncc(F)c3)nc12` [I-95, 5-(5-Fluoro-3-pyridyl)-N-[(3-hydroxyphenyl)methyl]-3-isopropyl-pyrazolo[1,5-a]pyrimidine-7-carboxamide], under 5.82. Turning to `CC(C)c1cnn2c(N[C@H](C)Cc3ccc(O)cc3)cc(-c3cncc(F)c3)nc12` [I-97a, 4-[(2R)-2-[[5-(5-Fluoro-3-pyridyl)-3-isopropyl-pyrazolo[1,5-a]pyrimidin-7-yl]amino]propyl]phenol], the pIC50 was under 5.82. For `CC(C)c1cnn2c(N[C@@H](C)Cc3c[nH]c4ccccc34)cc(-c3cncc(F)c3)nc12` [I-98a, 5-(5-Fluoro-3-pyridyl)-N-[(1S)-2-(1H-indol-3-yl)-1-methyl-ethyl]-3-isopropyl-pyrazolo[1,5-a]pyrimidin-7-amine] the value was under 5.82. In turn, `CC(C)c1cnn2c(NCCc3c[nH]c4c(F)cc(F)cc34)cc(-c3cncc(F)c3)nc12` [I-99, N-[2-(5,7-Difluoro-1H-indol-3-yl)ethyl]-5-(5-fluoro-3-pyridyl)-3-isopropyl-pyrazolo[1,5-a]pyrimidin-7-amine] had a pIC50 of over 6.30. For `CC(C)c1cnn2c(C(=O)NCc3ccc(O)cc3)cc(-c3cncc(F)c3)nc12` [I-100, 5-(5-Fluoro-3-pyridyl)-N-[(4-hydroxyphenyl)methyl]-3-isopropyl-pyrazolo[1,5-a]pyrimidine-7-carboxamide] the value was under 5.82.

On to `Cc1cc(CCNc2cc(-c3cncc(F)c3)nc3c(C(C)C)cnn23)ccc1O` [I-102, 4-[2-[[5-(5-Fluoro-3-pyridyl)-3-isopropyl-pyrazolo[1,5-a]pyrimidin-7-yl]amino]ethyl]-2-methyl-phenol], for which the pIC50 was over 6.30. With `CC(C)Oc1cc(NCCc2c[nH]c3cccnc23)nc(-c2cncc(F)c2)n1` [I-104, 2-(5-Fluoro-3-pyridyl)-6-isopropoxy-N-[2-(1H-pyrrolo[3,2-b]pyridin-3-yl)ethyl]pyrimidin-4-amine] the figure was 6.00 to 6.30; with `CC(C)c1cnn2c(NCCc3ccc(O)cc3)cc(-c3cncc(F)c3)nc12` [I-108, 4-[2-[[5-(5-Fluoro-3-pyridyl)-3-isopropyl-pyrazolo[1,5-a]pyrimidin-7-yl]amino]ethyl]phenol], over 6.30; with `CC(C)c1cnn2c(NCCc3c[nH]c4cccnc34)cc(-c3cncc(F)c3)nc12` [I-110, 5-(5-Fluoro-3-pyridyl)-3-isopropyl-N-[2-(1H-pyrrolo[3,2-b]pyridin-3-yl)ethyl]pyrazolo[1,5-a]pyrimidin-7-amine], 6.00 to 6.30. With `Fc1cncc(-c2ccnc(NCCc3c[nH]c4ccccc34)n2)c1` [I-120, 4-(5-Fluoro-3-pyridyl)-N-[2-(1H-indol-3-yl)ethyl]pyrimidin-2-amine] the figure was under 5.82. `CC(C)c1cnn2c(N[C@@H]3CCc4[nH]c5ccccc5c4C3)nc(-c3cccc(F)c3)nc12` [I-121, (3R)—N-[2-(3-Fluorophenyl)-8-isopropyl-pyrazolo[1,5-a][1,3,5]triazin-4-yl]-2,3,4,9-tetrahydro-1H-carbazol-3-amine] had a pIC50 of under 5.82. With `CSc1nc(N[C@@H]2CCc3[nH]c4ccccc4c3C2)n2ncc(C(C)C)c2n1` [I-122, (3R)—N-(8-Isopropyl-2-methylsulfanyl-pyrazolo[1,5-a][1,3,5]triazin-4-yl)-2,3,4,9-tetrahydro-1H-carbazol-3-amine] the figure was under 5.82; with `Fc1cncc(-c2nc(N[C@@H]3CCc4[nH]c5ccccc5c4C3)n3ncc(C4CCCCC4)c3n2)c1` [I-123, (3R)—N-[8-Cyclohexyl-2-(5-fluoro-3-pyridyl)pyrazolo[1,5-a][1,3,5]triazin-4-yl]-2,3,4,9-tetrahydro-1H-carbazol-3-amine], 5.82 to 6.00. For `Cc1cnn2c(-c3cncc(F)c3)cc(NCCc3c[nH]c4ccccc34)nc12` [I-124, 7-(5-Fluoro-3-pyridyl)-N-[2-(1H-indol-3-yl)ethyl]-3-methyl-pyrazolo[1,5-a] pyrimidin-5-amine] the value was under 5.82; for `Fc1cncc(-c2nc(N[C@@H]3CCc4[nH]c5ccccc5c4C3)n3ccnc3n2)c1` [I-125, (3R)—N-[2-(5-Fluoro-3-pyridyl)imidazo[1,2-a][1,3,5]triazin-4-yl]-2,3,4,9-tetrahydro-1H-carbazol-3-amine], under 5.82; for `CC(C)c1cnn2c(N[C@H]3CCc4nc(N)sc4C3)nc(-c3cncc(F)c3)nc12` [I-128a, (6S)—N6-[2-(5-Fluoro-3-pyridyl)-8-isopropyl-pyrazolo[1,5-a][1,3,5]triazin-4-yl]-4,5,6,7-tetrahydro-1,3-benzothiazole-2,6-diamine], under 5.82. For the compound `CC(C)c1cnn2c(N[C@@H]3CCc4nc(N)sc4C3)nc(-c3cncc(F)c3)nc12` [I-128b, (6R)—N6-[2-(5-Fluoro-3-pyridyl)-8-isopropyl-pyrazolo[1,5-a][1,3,5]triazin-4-yl]-4,5,6,7-tetrahydro-1,3-benzothiazole-2,6-diamine], the pIC50 was under 5.82.

`CC(C)(C)c1cnn2c(NCCc3c[nH]c4ccccc34)nc(-c3cncc(F)c3)nc12` [I-131, N-(2-(1H-Indol-3-yl)ethyl)-8-(tert-butyl)-2-(5-fluoropyridin-3-yl)pyrazolo[1,5-a][1,3,5]triazin-4-amine] had a pIC50 of over 6.30. For the compound `CC(C)(C)c1cnn2c(N[C@@H]3CCc4[nH]c5ccccc5c4C3)nc(-c3cncc(F)c3)nc12` [I-132, (R)—N-(8-(tert-Butyl)-2-(5-fluoropyridin-3-yl)pyrazolo[1,5-a][1,3,5]triazin-4-yl)-2,3,4,9-tetrahydro-1H-carbazol-3-amine], the pIC50 was 6.00 to 6.30.

Turning to `OCc1cnn2c(NCCc3c[nH]c4c(O)cccc34)cc(-c3cncc(F)c3)nc12` [I-133, 3-[2-[[5-(5-fluoro-3-pyridyl)-3-(hydroxymethyl)pyrazolo[1,5-a]pyrimidin-7-yl]amino]ethyl]-1H-indol-7-ol], the pIC50 was over 6.30. Compound `CC(C)Oc1cc(-c2cncc(F)c2)nc(N[C@@H]2CCc3[nH]c4ccccc4c3C2)n1` [I-134] had a pIC50 of under 5.82.

Regarding `CC(C)Oc1nc(N[C@@H]2CCc3[nH]c4ccccc4c3C2)nc(-c2cncc(F)c2)n1` [I-135, (3R)—N-[4-(5-Fluoro-3-pyridyl)-6-isopropoxy-1,3,5-triazin-2-yl]-2,3,4,9-tetrahydro-1H-carbazol-3-amine], the pIC50 was over 6.30. With `CC(C)Oc1nc(NCCc2c[nH]c3ccccc23)nc(-c2cncc(F)c2)n1` [I-136, 4-(5-Fluoro-3-pyridyl)-N-[2-(1H-indol-3-yl)ethyl]-6-isopropoxy-1,3,5-triazin-2-amine] the figure was over 6.30.

Compound `CC(C)c1cnn2c(N[C@H]3CCc4[nH]c5c(F)cc(F)cc5c4C3)nc(-c3cncc(F)c3)nc12` [I-139a, (3S)-6,8-difluoro-N-[2-(5-fluoro-3-pyridyl)-8-isopropyl-pyrazolo[1,5-a][1,3,5]triazin-4-yl]-2,3,4,9-tetrahydro-1H-carbazol-3-amine] gave a pIC50 of over 6.30.
